The target of this assay is T1, Human IP6K1 (Homo sapiens, UniProt Q92551).
T1 construct: GST (N, cleaved yes); made in house; host or cells: C43 E. coli, pGEX-6P-2
The assay is described as follows: IP6K1 high-throughput screen of the Sigma LOPAC (ADP-Glo Max, single point).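 Also: final compound concentration 10µM in 5% DMSO.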 It is filed as biochemical. (In ADP-Glo the light output rises with the ADP produced.)

The mark [1] stands for this setting: LOPAC single-point screen, ADP-Glo Max raw signal per well.
Where [2] appears, read: LOPAC single-point screen, Z-score from raw signal with plate average and StDev.
The mark [3] stands for this setting: LOPAC single-point screen, ADP-Glo Max luminescence raw signal per well.
Where [4] appears, read: LOPAC single-point screen, Z-score relative to plate average and StDev.
[5] abbreviates: LOPAC single-point screen, Z-score against plate average and StDev.
Setting [6] is: LOPAC single-point screen, Z-score from plate average and StDev.
The mark [7] stands for this setting: Sigma LOPAC single-point screen, ADP-Glo Max raw signal per well.
Where [8] appears, read: Sigma LOPAC single-point screen, Z-score from plate average and StDev.

Structures can show the parent of a compound that is named as a salt.

T1 sequence (Q92551 whole entry): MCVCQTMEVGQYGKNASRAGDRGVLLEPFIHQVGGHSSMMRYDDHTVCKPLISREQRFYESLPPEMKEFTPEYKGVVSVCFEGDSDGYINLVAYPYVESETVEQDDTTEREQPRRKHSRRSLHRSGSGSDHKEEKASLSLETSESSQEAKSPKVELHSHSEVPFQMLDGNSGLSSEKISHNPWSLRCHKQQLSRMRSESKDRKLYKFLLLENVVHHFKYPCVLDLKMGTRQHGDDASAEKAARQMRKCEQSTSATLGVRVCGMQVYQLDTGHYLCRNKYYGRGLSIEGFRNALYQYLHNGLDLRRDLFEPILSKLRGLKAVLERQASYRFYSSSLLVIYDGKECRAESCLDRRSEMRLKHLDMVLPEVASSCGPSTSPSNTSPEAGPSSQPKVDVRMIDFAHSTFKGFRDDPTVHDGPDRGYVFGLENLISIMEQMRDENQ

As for `Nc1cc(N2CCCCC2)nc(N)[n+]1[O-]` [Minoxidil], the “Raw Signal” value under setting [1] is given as 52091. In addition, under setting [2], the Z-score is listed as -0.3869.
The matching figures for `C#CCN(C)Cc1ccccc1` [Pargyline hydrochloride]: 54085 and -0.3767.
As to `O=C(O)CC[N+](=O)[O-]` [3-Nitropropionic acid], the “Raw Signal” value under setting [1] is reported as 53138. The Z-score under setting [2] is -0.211.
The corresponding values for `CC(C)(C)NCC(O)c1ccccc1Cl` (stereo not shown) [Tulobuterol hydrochloride] are 54303 and -0.3343.
Turning to `O=C(CCCN1CC=C(n2c(=O)[nH]c3ccccc32)CC1)c1ccc(F)cc1` [Droperidol], the “Raw Signal” value under setting [3] is on record as 49359. Also, the Z-score under setting [4] is reported as -1.18.
As for `Cc1[nH]c(=O)c(C#N)cc1-c1ccncc1` [Milrinone], the “Raw Signal” value under setting [1] worked out at 53863. Under setting [5], the Z-score is -0.08914.
Turning to `CCCCc1ccc(C(=O)O)nc1` [Fusaric acid], the “Raw Signal” value under setting [3] was determined as 50850. In addition, the Z-score under setting [4] is -0.8767.
For `CCN(CC)CCOCCOC(=O)C1(c2ccccc2)CCCC1` [Carbetapentane citrate], under setting [3], the “Raw Signal” value amounted to 67390. The Z-score under setting [6] is 1.669.
As for `COC(=O)Nc1nc2ccc(C(=O)c3cccs3)cc2[nH]1` [Nocodazole], the “Raw Signal” value under setting [7] worked out at 59128. For the same molecule, the Z-score under setting [8] worked out at 0.7955.
Consider `CCc1cc(Cl)c(O)c(C(=O)NC[C@@H]2CCCN2CC)c1OC.Cl` [S-(-)-Eticlopride hydrochloride], for which, under setting [3], the “Raw Signal” value was determined as 63565. In addition, the Z-score under setting [6] came to 1.706.
Regarding `O=c1[nH]cc(F)c(=O)[nH]1` [5-Fluorouracil], the “Raw Signal” value under setting [3] came out at 52294. For the same molecule, under setting [4], the Z-score is reported as -0.5835.
As for `O=C(O)/C=C\C(=O)O.c1cnc(N2CCN(Cc3ccc4c(c3)OCO4)CC2)nc1` [Piribedil maleate], the “Raw Signal” value under setting [7] worked out at 62540. Further, the Z-score under setting [8] came to 1.266.
On to `CC#CCOC(=O)c1c(C)nc2sc3c(c2c1N)CCC(O)C3` (stereo not shown) [SB 205384], for which, under setting [7], the “Raw Signal” value was determined as 57931. Under setting [8], this molecule gave a Z-score of 0.3705.
The matching figures for `O=C(c1ccc(F)cc1)C1CCN(CCn2c(=O)[nH]c3ccccc3c2=O)CC1` [Ketanserin tartrate]: 61310 and 1.027.
Take `COc1ccc2[nH]c3c(c2c1)CCNC3`: the “Raw Signal” value under setting [3] worked out at 69821. This molecule showed a Z-score under setting [6] of 2.097.
Regarding `Br.CCCN1CCC2c3cc(O)ccc3CCC21` (racemic) [cis-(±)-8-OH-PBZI hydrobromide], under setting [1], the “Raw Signal” value is recorded as 53901. In addition, under setting [5], the Z-score is -0.08275.
With `Nc1nccc2c1ncn2[C@@H]1O[C@H](CO)[C@@H](O)[C@H]1O` [3-deazaadenosine], under setting [3], the “Raw Signal” value came to 51727. Also, under setting [4], the Z-score was -0.6986.
As to `Nc1nc(O)c2ncn(COC(CO)CO)c2n1` [Ganciclovir], under setting [7], the “Raw Signal” value was 57228. The Z-score under setting [8] is on record as 0.4186.
The corresponding values for `CC(C)[N+]1(C)[C@@H]2CC[C@H]1C[C@@H](OC(=O)C(CO)c1ccccc1)C2` (stereo partly shown) [Ipratropium bromide] are 56944 and 0.3609.
The matching figures for `NCCc1c[nH]c2ccccc12` [Tryptamine hydrochloride]: 60596 and 0.4725.
Turning to `CCN(CC)CCNC(=O)c1ccc(N)cc1` [Procainamide hydrochloride], under setting [3], the “Raw Signal” value stood at 51793. Also, the Z-score under setting [4] is given as -0.822.
The matching figures for `Cn1cnc([N+](=O)[O-])c1Sc1ncnc2nc[nH]c12` [Azathioprine]: 52333 and -0.9828.
For the molecule `[Cl-].[Li+]` [Lithium Chloride], the “Raw Signal” value under setting [7] stood at 59222. Under setting [8], this molecule registered a Z-score of 0.8235.
Regarding `CC12CC3CC(C)(C1)CC(N)(C3)C2` [Memantine hydrochloride], the “Raw Signal” value under setting [1] was determined as 56169. The molecule further came in with a Z-score under setting [5] of 0.2983.
The corresponding values for `CN1CCc2cc(Cl)c(O)cc2[C@@H](c2ccccc2)C1.Cl` [R(+)-SCH-23390 hydrochloride] are 55189 and 0.004461.
Turning to `Cl.N=C(N)NC(=N)Nc1cccc(Cl)c1`, the “Raw Signal” value under setting [3] is on record as 49824. Further, the Z-score under setting [4] is -1.085.
Turning to `C[C@H](O)[C@H](O)[C@H]1CNc2nc(N)[nH]c(=O)c2N1.Cl`, the “Raw Signal” value under setting [1] worked out at 53766. The Z-score under setting [2] is listed as -0.4386.
Regarding `O=C(O)CCC/C=C\C[C@@H]1[C@@H](/C=C/[C@H](O)C2Cc3ccccc3C2)[C@@H](F)C[C@@H]1O` [AL-8810], under setting [3], the “Raw Signal” value was 53863. Besides, under setting [4], the Z-score is reported as -0.7133.
On to `N[C@H](C(=O)O)[C@H]1C[C@@H]1C(=O)O`, for which, under setting [1], the “Raw Signal” value is on record as 55555. Further, under setting [5], the Z-score is recorded as 0.07879.
The corresponding values for `CC(=O)OCC(=O)[C@@]1(O)CC[C@H]2[C@@H]3CCC4=CC(=O)CC[C@]4(C)[C@H]3C(=O)C[C@@]21C` [Cortisone 21-acetate] are 59780 and 0.3288.
On to `CCc1cccc2c3c([nH]c12)C(CC)(CC(=O)O)OCC3` (stereo not shown) [Etodolac], for which the “Raw Signal” value under setting [7] is 60333. Further, under setting [8], the Z-score came to 1.049.
For `CCCCNC(=O)NS(=O)(=O)c1ccc(C)cc1` [Tolbutamide], the “Raw Signal” value under setting [3] is on record as 65444. Moreover, the Z-score under setting [6] is on record as 1.83.
As for `N#C/C(=C\c1c[nH]c2ccccc12)C(=O)c1ccc(O)c(O)c1` [Tyrphostin AG 808], under setting [1], the “Raw Signal” value came out at 55945. In addition, the Z-score under setting [5] is on record as -0.01531.
As for `COC1=C(OC)C(=O)c2ccccc2C1=O` [2,3-Dimethoxy-1,4-naphthoquinone], the “Raw Signal” value under setting [7] was 57485. In addition, the Z-score under setting [8] came out at 0.4708.
Turning to `O=C1CN(/N=C/c2ccc(-c3ccc([N+](=O)[O-])cc3)o2)C(O)=N1` [Dantrolene sodium], under setting [3], the “Raw Signal” value is on record as 49715. Under setting [4], the Z-score is -1.107.
As to `Cc1ccc(OCC(O)C(C)NC(C)C)c2c1CCC2.Cl` (stereo not shown) [ICI 118,551 hydrochloride], the “Raw Signal” value under setting [7] amounted to 57174. Also, the Z-score under setting [8] was 0.4672.
Take `N#C/C(=C\c1ccc(O)c(O)c1)C(=O)NCCCNC(=O)/C(C#N)=C/c1ccc(O)c(O)c1` [Tyrphostin AG 537]: the “Raw Signal” value under setting [3] amounted to 33325. Moreover, the Z-score under setting [4] is given as -4.41.
The corresponding values for Ro 20-1724 are 54602 and -0.5832.
The corresponding values for `CCOC(=O)N1CCC(=C2c3ccc(Cl)cc3CCc3cccnc32)CC1` [Loratadine] are 49648 and -0.7974.
The matching figures for `COc1c2c(nc3ccccc13)OC(C(C)(O)CO)C2` (stereo not shown) [Dubinidine]: 52835 and -0.4736.
Regarding `CC(C)(C)[C@]1(O)CCN2C[C@H]3c4ccccc4CCc4cccc(c43)[C@@H]2C1` [(+)-Butaclamol hydrochloride], the “Raw Signal” value under setting [3] amounted to 54506. In addition, under setting [4], the Z-score was -0.6001.
Take `NS(=O)(=O)Cc1noc2ccccc12` [Zonisamide sodium]: the “Raw Signal” value under setting [1] came out at 56166. This molecule showed a Z-score under setting [5] of 0.02763.
Turning to `Br.Br.N=C(N)SCCc1cccc(CCSC(=N)N)c1` [1,3-PBIT dihydrobromide], the “Raw Signal” value under setting [7] is 61855. Moreover, under setting [8], the Z-score came to 1.133.
The corresponding values for `Cl.NCCNC(=O)c1ccc(Cl)cc1` [Ro 16-6491 hydrochloride] are 60492 and 0.8681.
Turning to `c1ccc2c(c1)CCCC2C1=NCCN1` (stereo not shown) [Tetrahydrozoline hydrochloride], under setting [1], the “Raw Signal” value was determined as 57605. Moreover, under setting [5], the Z-score amounted to 0.3072.
The corresponding values for `CCOC(=O)C(C)(C)Oc1ccc(Cl)cc1` [Clofibrate] are 58171 and 0.04542.
Turning to `OCCN(CCO)c1nc(N2CCCCC2)c2nc(N(CCO)CCO)nc(N3CCCCC3)c2n1` [Dipyridamole], the “Raw Signal” value under setting [3] was 52429. Under setting [4], the Z-score is -0.5561.
With `CCN(CC)C(=S)SSC(=S)N(CC)CC` [Tetraethylthiuram disulfide], the “Raw Signal” value under setting [1] came to 54661. The Z-score under setting [2] is reported as -0.2648.
Consider `C[N+](C)(C)CCCCCCCCCC[N+](C)(C)C.[Br-].[Br-]` [Decamethonium dibromide], for which the “Raw Signal” value under setting [3] turned out to be 52379. Moreover, the Z-score under setting [4] is on record as -0.5662.
The matching figures for `CCCn1c(=O)c2[nH]c(C3CCCC3)nc2n(CCCOC(=O)c2ccc(S(=O)(=O)F)cc2)c1=O` [FSCPX]: 51325 and -0.7803.
Turning to `S=C([S-])OC1CC2CC1C1CCCC21.[K+]` [D-609 potassium], the “Raw Signal” value under setting [1] was 55448. Further, the Z-score under setting [2] is -0.1119.
Turning to `O=C(O)c1nn(Cc2ccc(Cl)cc2Cl)c2ccccc12` [Lonidamine], under setting [1], the “Raw Signal” value is 56276. Besides, the Z-score under setting [5] is 0.3163.
As for `Cl.c1ccc(CN(CC2=NCCN2)c2ccccc2)cc1` [Antozoline hydrochloride], under setting [3], the “Raw Signal” value is given as 54212. The Z-score under setting [4] is reported as -0.6519.
Regarding `Cc1c(OCC(F)(F)F)ccnc1C[S+]([O-])c1nc2ccccc2[nH]1` (stereo not shown) [Lansoprazole], the “Raw Signal” value under setting [1] is given as 53701. In addition, under setting [2], the Z-score is listed as -0.1164.
The corresponding values for `O=C(C1CCCCC1)N1CC(=O)N2CCc3ccccc3C2C1` (stereo not shown) [Praziquantel] are 53749 and -0.1083.
`COC1(C2=NCCN2)COc2ccccc2O1.Cl` (stereo not shown) [RX 821002 hydrochloride]: the “Raw Signal” value under setting [1] was found to be 56903. Besides, the Z-score under setting [5] stood at 0.1708.

These data come from article PMC5706701, “Development of a homogenous high-throughput assay for inositol hexakisphosphate kinase 1 activity” (PLoS ONE, 2017).
